How the values were obtained:
[1] = test system: Enzalutamide resistant VCaP (MDVR VCaP) xenograft; details: cited from earlier work
[2] = test system: AR and AR-V7-positive 22RV1 xenograft; test: 22RV1 xenograft in NSG mice; assay type: in vivo, mouse
[3] = test system: FKBP5 gene expression in LNCaP cells; test: AR-target gene (FKBP5) expression in LNCaP cells, real-time PCR; assay type: cell-based, human; details: R1881-induced, FIG. 3
UT-1355 TNBC PDX = test: TNBC patient-derived xenograft UT-1355 in NSG mice; assay type: in vivo, mouse; details: for tumor volume at end: in mm³ (unit assumed)
[4] = molecular target: recombinant LBD of wildtype AR (wtAR); details: read-out: Binding Ki; cited from earlier work
[5] = Metabolic stability in mouse liver microsomes (phase I and II)
[6] = Metabolic stability in rat liver microsomes (phase I and II); assay type: in vitro ADME; details: for half-life at 1 µM: read-out: RLM T1/2
[7] = test system: ventral prostate (VP) and seminal vesicle (SV) weights; test: Hershberger assay in intact rats; assay type: in vivo, rat
Protocol: FIGS. 7A and 7B depict that SARDs and pan-antagonists inhibited androgen-dependent organs in rats. FIGS. 7 A and 7B show the reduction of VP and SV weights following the treatment of intact rats with 20 mg/kg (mpk) po daily of antagonist or vehicle for 14 days (n=5/group). Rats were sacrificed at the end of the treatment period and weights of prostate and SVs were measured and normalized to body weight.
Male rats (6-8 weeks old) were randomized into groups based on body weight. Animals were sacrificed, prostate and seminal vesicles were weighed, and organ weights were normalized to body weight. Male rats (n=5/group) were left intact, for […]. […] Organ weights were normalized to body weight. […] The goal of the experiments was to find compounds with in vivo antiandrogen efficacies greater than 10.
Hershberger Assays. […] Rat ventral prostate (VP), seminal vesicle (SV), and levator ani (LA) muscle are AR-dependent tissues whose size (reflected by their weight) responds rapidly to castration.
Traditionally, agonists are dosed to prevent (whereby agonist is given upon castration) or restore (agonist is given after tissue atrophies) anabolic tissue weights [LA or other skeletal muscles and bone (the latter takes months not days to atrophy and restore)] to intact levels or greater, without increasing androgenic tissue (SV or VP) weights back to intact levels. […]

[8] = In vivo lethality observation; details: 5 mg/kg
[9] = Metabolic stability in human liver microsomes (phase I and II); assay type: in vitro ADME
in vitro = details: mouse, microsomes, pH 7.5
[10] = test system: Enzalutamide resistant VCaP (MDVR VCaP) xenograft; test: Enz-R (MDVR) VCaP xenograft in intact SRG rats; assay type: in vivo, rat; details: 10 mg/kg po daily, FIG. 8B
CMV-hAR = CMV-hAR (Homo sapiens, UniProt P10275); test: cell-based; details: read-out: Wt. IC50
Sequence of CMV-hAR (P10275 whole entry, the tested form may be a part): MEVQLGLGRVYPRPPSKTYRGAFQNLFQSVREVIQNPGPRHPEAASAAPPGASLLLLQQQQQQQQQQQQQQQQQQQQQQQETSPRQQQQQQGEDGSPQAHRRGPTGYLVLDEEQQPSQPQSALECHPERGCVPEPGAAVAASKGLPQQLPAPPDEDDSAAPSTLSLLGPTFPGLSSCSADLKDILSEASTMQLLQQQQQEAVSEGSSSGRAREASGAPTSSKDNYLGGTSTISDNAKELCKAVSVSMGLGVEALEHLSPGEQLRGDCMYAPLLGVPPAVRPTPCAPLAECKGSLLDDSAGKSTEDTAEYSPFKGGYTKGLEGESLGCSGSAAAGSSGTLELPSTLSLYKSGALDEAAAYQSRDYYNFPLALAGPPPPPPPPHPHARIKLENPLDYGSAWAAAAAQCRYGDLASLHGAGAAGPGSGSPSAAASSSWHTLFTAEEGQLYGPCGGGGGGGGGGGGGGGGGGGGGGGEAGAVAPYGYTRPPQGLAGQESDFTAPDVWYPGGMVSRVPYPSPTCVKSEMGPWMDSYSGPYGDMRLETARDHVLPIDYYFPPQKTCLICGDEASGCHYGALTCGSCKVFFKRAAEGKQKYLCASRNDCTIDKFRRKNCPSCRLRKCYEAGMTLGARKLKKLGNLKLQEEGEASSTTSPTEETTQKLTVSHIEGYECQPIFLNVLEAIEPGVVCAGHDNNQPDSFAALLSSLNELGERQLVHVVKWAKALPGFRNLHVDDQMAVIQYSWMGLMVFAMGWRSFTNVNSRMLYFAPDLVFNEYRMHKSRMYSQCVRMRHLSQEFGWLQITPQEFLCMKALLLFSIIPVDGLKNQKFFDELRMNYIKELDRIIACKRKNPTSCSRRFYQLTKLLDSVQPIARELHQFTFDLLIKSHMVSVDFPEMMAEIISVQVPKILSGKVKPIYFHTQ

hAR-LBD (633-919) = molecular target: T1, hAR-LBD (633-919) (Homo sapiens, UniProt P10275); test: Ligand binding assay (Ki), [3H]mibolerone competition (Table A)
T1 sequence (P10275 633-919): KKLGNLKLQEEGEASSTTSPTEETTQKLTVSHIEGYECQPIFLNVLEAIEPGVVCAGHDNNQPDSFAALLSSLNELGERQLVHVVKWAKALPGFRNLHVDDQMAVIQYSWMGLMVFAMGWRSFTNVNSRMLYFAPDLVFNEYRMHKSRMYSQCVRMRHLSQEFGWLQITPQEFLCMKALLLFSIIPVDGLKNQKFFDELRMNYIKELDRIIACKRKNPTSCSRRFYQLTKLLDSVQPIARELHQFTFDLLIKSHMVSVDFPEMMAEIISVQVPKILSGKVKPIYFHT

[11] = pH 7.5, MLM T1/2 (min), co-factors for phases I and II
[12] = rat, microsomes, pH 7.5, cofactors for phases I and II

SMILES: CNC(=O)c1ccc(N2C(=S)N(c3ccc(C#N)c(C(F)(F)F)c3)C(=O)C2(C)C)cc1F [4 (enzalutamide), enzalutamide, reference compound]
- effect in MDVR VCaP xenograft ([1]; not shown, previously published): failed to durably achieve any effect
- time to euthanasia criteria (Kaplan-Meier) ([2]; length>2 cm or volume>2000 mm^3, FIG. 12): reached euthanasia criteria earlier than the animals treated with 21c
- effect on 22RV1 xenograft growth ([2]; oral, NSG mice): failed to inhibit the growth
- inhibition of FKBP5 expression [3]: also inhibited expression of the FKBP5 but at a slightly lower potency
- time to euthanasia criteria (Kaplan-Meier) (UT-1355 TNBC PDX; enzalutamide 60 mpk, FIG. 15): reached euthanasia criteria earlier than the animals treated with 21c

SMILES: CC(O)c1cc(C(=O)N[C@@H](C)Cn2ccc(-c3ccc(C#N)c(Cl)c3)n2)[nH]n1 (some centres unmarked) [6 (darolutamide), darolutamide]
- Ki [4]: 11 nM

SMILES: C[C@](O)(Cn1cc(F)cn1)C(=O)Nc1ccc(C#N)c(C(F)(F)F)c1 [Compound 10, (S)—N-(4-Cyano-3-(trifluoromethyl)phenyl)-3-(4-fluoro-1H-pyrazol-1-yl)-2-hydroxy-2-methylpropanamide]
- dose required to achieve similar results (TGI) ([1]; previously published for 10): 20 to 30 mg/kg
- tumor volume at start (UT-1355 TNBC PDX; 60 mpk 21c, 10 60 mpk b.i.d): 427 mm³
- tumor volume at end (UT-1355 TNBC PDX; 60 mpk 21c, 10 60 mpk b.i.d): 1354

SMILES: C[C@](O)(Cn1ccc(F)n1)C(=O)Nc1ccc(C#N)c(C(F)(F)F)c1 [Compound 16b, (S)—N-(4-Cyano-3-(trifluoromethyl)phenyl)-3-(3-fluoro-1H-pyrazol-1-yl)-2-hydroxy-2-methylpropanamide]
- half-life at 1 µM [5, 11]: ≥ 0.807 h

SMILES: C[C@](O)(Cn1cc(Cl)cn1)C(=O)Nc1ccc(C#N)c(C(F)(F)F)c1 [Compound 16c, (S)-3-(4-Chloro-1H-pyrazol-1-yl)-N-(4-cyano-3-(trifluoromethyl)phenyl)-2-hydroxy-2-methylpropanamide]
- RLM T1/2 ([6]; cofactors for phases I and II): >2 h
- half-life at 1 µM [6, 12]: > 2 h

SMILES: C[C@](O)(Cn1cc(C(F)(F)F)cn1)C(=O)Nc1ccc(C#N)c(C(F)(F)F)c1 [Compound 16g, (S)—N-(4-Cyano-3-(trifluoromethyl)phenyl)-2-hydroxy-2-methyl-3-(4-(trifluoromethyl)-1H-pyrazol-1-yl)propanamide]
- half-life at 1 µM [6, 12]: > 2 h
- half-life at 1 µM [5, 11]: ≥ 0.807 h

SMILES: C[C@](O)(Cn1ccc(C(F)(F)F)n1)C(=O)Nc1ccc(C#N)c(C(F)(F)F)c1 [Compound 16h, (S)—N-(4-Cyano-3-(trifluoromethyl)phenyl)-2-hydroxy-2-methyl-3-(3-(trifluoromethyl)-1H-pyrazol-1-yl)propanamide]
- half-life at 1 µM [5, 11]: ≥ 0.807 h

SMILES: C[C@](O)(Cn1cc(C#N)cn1)C(=O)Nc1ccc(C#N)c(C(F)(F)F)c1 [Compound 16i, (S)-3-(4-Cyano-1H-pyrazol-1-yl)-N-(4-cyano-3-(trifluoromethyl)phenyl)-2-hydroxy-2-methylpropanamide]
- toxicity in 20 mg/kg fixed dose screening Hershberger ([7]; 20 mg/kg, rats): toxic so no data
- lethality in vivo [8]: lethality at 5 mg/kg
- half-life at 1 µM [5, 11]: ≥ 0.807 h

SMILES: C[C@](O)(Cn1cc(F)cn1)C(=O)Nc1cnc(C#N)c(C(F)(F)F)c1 [Compound 21a]
- RLM CLint ([6]; rat, microsomes, 1 µM, pH 7.5): 0 µL/min/mg
- HLM CLint ([9]; 1 µM, pH 7.5): 0 µL/min/mg
- half-life at 1 µM (in vitro): ≥ 0.807 h

SMILES: C[C@](O)(Cn1cc(C#N)cn1)C(=O)Nc1cnc(C#N)c(C(F)(F)F)c1 [Compound 21c, (S)-3-(4-Cyano-1H-pyrazol-1-yl)-N-(6-cyano-5-(trifluoromethyl)pyridin-3-yl)-2-hydroxy-2-methylpropanamide]
- tumor volume at end ([2]; oral, NSG mice): 1205 mm^3
- tumor volume at start ([2]; oral, NSG mice): 301 mm^3
- tumor volume inhibition (maximum) ([2]; oral, NSG mice, FIGS. 11A-11B): 63%
- growth inhibition of UT-1355 PDX (UT-1355 TNBC PDX; 60 mpk 21c, 10 60 mpk b.i.d): significantly inhibited the growth
- tumor volume at start (UT-1355 TNBC PDX; 60 mpk 21c, 10 60 mpk b.i.d): 227 mm³
- tumor volume at end (UT-1355 TNBC PDX; 60 mpk 21c, 10 60 mpk b.i.d): 331

SMILES: C[C@](O)(Cn1cc(F)cn1)C(=O)Nc1ccc(C(N)=O)nc1 [Compound 21g, (S)-5-(3-(4-Fluoro-1H-pyrazol-1-yl)-2-hydroxy-2-methylpropanamido)picolinamide]
- half-life at 1 µM ([5]; pH 7.5): > 6 h

SMILES: C[C@](O)(Cn1cc(Br)c(F)n1)C(=O)Nc1ccc(C#N)c(C(F)(F)F)c1 [Compound 26a, (S)-3-(4-Bromo-3-fluoro-1H-pyrazol-1-yl)-N-(4-cyano-3-(trifluoromethyl)phenyl)-2-hydroxy-2-methylpropanamide]
- SV weight reduction ([7]; 20 mg/kg po daily, intact rats, FIG. 7B): ~50%
- half-life at 1 µM [6, 12]: > 2 h
- tumor weights at the end of the study [10]: significant inhibition
- half-life at 1 µM ([9]; pH 7.5, cofactors for phases I and II, read-out: HLM T1/2): > 2 h

SMILES: C[C@@](O)(Cn1cc(F)cn1)C(=O)Nc1ccc(C#N)c(C(F)(F)F)c1 [Compound 29a, (R)—N-(4-Cyano-3-(trifluoromethyl)phenyl)-3-(4-fluoro-1H-pyrazol-1-yl)-2-hydroxy-2-methylpropanamide]
- half-life at 1 µM ([5]; pH 7.5): ≥ 0.807 h

SMILES: C[C@](O)(Cn1cc(F)cn1)C(=O)Nc1ccc(C#N)cc1Cl [Compound 29i, (S)—N-(2-Chloro-4-Cyanophenyl)-3-(4-Fluoro-1H-Pyrazol-l-Yl)-2-Hydroxy-2-Methylpropanamide]
- IC50 (CMV-hAR): 1230 nM

SMILES: C[C@](O)(Cn1cc(C#N)cn1)C(=O)Nc1ccc(C#N)cc1Cl [Compound 29j, (S)—N-(2-chloro-4-cyanophenyl)-3-(4-cyano-1H-pyrazol-1-yl)-2-hydroxy-2-methylpropanamide]
- IC50 (CMV-hAR): 1120 nM

SMILES: Cc1c(NC(=O)[C@@](C)(O)Cn2cc(C#N)cn2)ccc(C#N)c1Cl [Compound 29k, (S)—N-(3-Chloro-4-Cyano-2-Methylphenyl)-3-(4-Cyano-1H-Pyrazol-1-Yl)-2-Hydroxy-2-Methylpropanamide]
- IC50 (CMV-hAR): 1700 nM

SMILES: C[C@](O)(Cn1cc(-c2ccc(C#N)cc2)nn1)C(=O)Nc1ccc(C#N)c(C(F)(F)F)c1 [Compound 29o, (S)—N-(4-Cyano-3-(Trifluoromethyl)Phenyl)-3-(4-(4-Cyanophenyl)-1H-1,2,3-Triazol-1-Yl)-2-Hydroxy-2-Methylpropanamide]
- Ki (hAR-LBD (633-919)): 1510 nM
- IC50 (CMV-hAR): 62 nM

Source: patent publication US20230115515A1, “PYRAZOLYLPROPANAMIDE COMPOUNDS AND USES THEREOF FOR TREATMENT OF PROSTATE CANCER” (priority 2020, published 2023)
